Measured values as given in patent US7323166B2, “Lactic acid bacteria cultures that inhibit food-borne pathogens” (Board of Regents University of Nebraska, priority 2002, dated 2008).

These molecules were tested on cattle isolates (assay: Test of antibiotic resistance in cattle isolates towards various antibiotics (share of isolates per category)). Details: share of the 19 cattle isolates.
Format: cell-based, lactic acid bacteria (LAB)
From the text: The following are examples of types of drugs that would be included in the three categories: Category I: quinolones, vancomycin, dalfopristin/quinupristin, third generation cephalosporins; Category II: ampicillin, first and second generation cephalosporins, erythromycin, trimethoprim/sulfamethoxazole; and Category III: inophores (monensin) and polymixins (Polymixin B and colistin). […] A commercial antimicrobial susceptibility test kit-Etest (AB Biodisk, North America Inc., Piscatway, N.J.) was used to determine the minimum inhibitory concentrations (MIC) of the antibiotics for the isolates selected. Etest strips containing a predefined exponential gradient of a particular antibiotic were applied to agar plates containing Mueller Hinton Agar (Difco) pre-inoculated with an overnight culture of the given bacteria (inoculum of 0.5 McFarland turbidity in 0.85% NaCl). The agar plates with the strips were immediately incubated at 37° C. for 16-20 hours, when bacterial growth became distinctly visible. After incubation, MIC values (μg/ml) were read where the inhibition ellipse (centered along the strip) intersected the scale at the edge of the strip. The susceptibility categorization of organisms towards a specific antibiotic was provided in the Etest antibiotic supplements for each agent and was used to examine the susceptibility of lactic acid bacteria (LAB) isolates. Based on the categorization, MIC for a particular organism was reported as susceptible (S), intermediate (I), or resistant (R). When growth occurred along the entire strip, i.e. no inhibition ellipse was seen, the MIC was reported as greater than (>H) the highest value on the reading scale.

Compound | % Intermediate [%] | % Resistant [%] | % Susceptible [%]
Cc1c(F)c(N2CCNC(C)C2)cc2c1c(=O)c(C(=O)O)cn2C1CC1 (stereo not shown) [GP, Grepafloxacin] | 10.0 | 58.0 | 32.0
CC[C@H]1OC(=O)[C@H](C)[C@@H](O[C@H]2C[C@@](C)(OC)[C@@H](O)[C@H](C)O2)[C@H](C)[C@@H](O[C@@H]2O[C@H](C)C[C@H](N(C)C)[C@H]2O)[C@](C)(O)C[C@@H](C)C(=O)[C@H](C)[C@@H](O)[C@]1(C)O [EM, Erythromycin] | 5.0 | 21.0 | 74.0
CC1(C)S[C@@H]2[C@H](NC(=O)[C@H](N)c3ccccc3)C(=O)N2[C@H]1C(=O)O [AM, Ampicillin] | 0.0 | 10.0 | 90.0
C[C@H]1COc2c(N3CCN(C)CC3)c(F)cc3c(=O)c(C(=O)O)cn1c23 [LE, Levofloxacin] | 37.0 | 5.0 | 58.0
CN(C)[C@@H]1C(O)=C(C(N)=O)C(=O)[C@@]2(O)C(O)=C3C(=O)c4c(O)cccc4[C@@](C)(O)[C@H]3C[C@@H]12 [TC, Tetracycline] | 0.0 | 31.0 | 69.0

Same assay, conditions: share of the 19 cattle isolates; listed as grepafloxacin

Compound | % Resistant [%]
Cc1c(F)c(N2CCNC(C)C2)cc2c1c(=O)c(C(=O)O)cn2C1CC1 (stereo not shown) [GP, Grepafloxacin] | 58
